Measured values as given in article PMC5389830, “Longitudinal monitoring of Gaussia and Nano luciferase activities to concurrently assess ER calcium homeostasis and ER stress in vivo” (PLoS ONE, 2017).

Molecular target: T1, GLuc (Gaussia luciferase) (Gaussia princeps (in: crustaceans), UniProt Q9BLZ2)
T1 construct: secreted GLuc without SERCaMP peptide, in culture medium of transfected SH-SY5Y cells
T1 sequence (Q9BLZ2 18-185): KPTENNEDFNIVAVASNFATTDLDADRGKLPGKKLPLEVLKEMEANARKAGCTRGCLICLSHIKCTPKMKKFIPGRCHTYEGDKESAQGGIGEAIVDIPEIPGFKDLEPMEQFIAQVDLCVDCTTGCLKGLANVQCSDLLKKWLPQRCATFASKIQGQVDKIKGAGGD
Assay: luminescence, culture medium of transfected SH-SY5Y cells
Format: biochemical
Conditions: 8 μM coelenterazine; flash kinetics

Oc1ccc(Cc2nc3c(Cc4ccccc4)nc(-c4ccc(O)cc4)cn3c2O)cc1 [coelenterazine]
luminescence, culture medium of transfected SH-SY5Y cells: GLuc and secNLuc both showed activity towards CTZ, with GLuc exhibiting flash kinetics
